{"source": "patent US7803816B2", "about": "“MCH receptor antagonists” (Hoffmann-La Roche Inc., priority 2005, dated 2010)", "note": "Where a name gives a salt, the structure may show the parent alone."}
{"target": "T1, recombinant human MCHR1-receptors (Homo sapiens, UniProt Q99705)", "T1 construct": "expressed in transfected cells", "T1 sequence (Q99705 whole entry)": "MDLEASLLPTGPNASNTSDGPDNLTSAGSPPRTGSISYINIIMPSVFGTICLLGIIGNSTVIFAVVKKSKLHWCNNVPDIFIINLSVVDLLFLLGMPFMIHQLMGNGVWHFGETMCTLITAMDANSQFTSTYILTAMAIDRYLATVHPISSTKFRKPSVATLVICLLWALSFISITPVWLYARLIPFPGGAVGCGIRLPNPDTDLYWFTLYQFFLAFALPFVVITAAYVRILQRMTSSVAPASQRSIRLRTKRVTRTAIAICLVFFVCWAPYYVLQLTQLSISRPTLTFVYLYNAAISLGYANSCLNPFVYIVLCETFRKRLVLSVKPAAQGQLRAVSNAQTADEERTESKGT", "experiment": "MCHR filter binding assay (competition binding)", "settings": "membranes from CHO-K1 cells expressing human MCHR1; 0.2 nM [Phe13,[125I]Tyr19]-MCH; read-out: IC50 (nM), in vitro activity (binding assay)", "method_in_brief": "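Membranes from CHO-K1 cells stably expressing human MCHR1 (2.8 μg) preincubated 15 min with competitor, then 1 h at rt with 0.2 nM [Phe13,[125I]Tyr19]-MCH in HEPES/CaCl2/BSA/phenanthroline/Triton buffer. Bound radioactivity counted after rapid filtration over PVP/BSA-treated GF/B filters.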", "units": {"IC50": "nM"}}
{"molecule": "CCc1nc2cc(C)ccc2n1C1CCN(C[C@@H]2Cc3ccc(NC(=O)C4CC4)cc3C2)CC1OC", "note": "(stereo partly drawn) [Example 72, Cyclopropanecarboxylic acid {(R)-2-[4-(2-ethyl-5-methyl-benzoimidazol-1-yl)-3-methoxy-piperidin-1-ylmethyl]-indan-5-yl}-amide]", "IC50": "20 to 200"}
{"molecule": "CO[C@@H]1CN(C[C@H]2Cc3ccc(Br)cc3C2)CC[C@H]1n1c(C(C)(C)O)nc2cc(F)ccc21", "note": "[Example 111, 2-{1-[(3R,4R)-1-((S)-5-Bromo-indan-2-ylmethyl)-3-methoxy-piperidin-4-yl]-5-fluoro-1H-benzoimidazol-2-yl}-propan-2-ol]", "IC50": "20 to 200"}
{"molecule": "Cc1ccc2c(c1)nc(C(C)(C)O)n2C1CCN(C[C@@H]2Cc3ccc(Br)cc3C2)CC1", "note": "[Example 96, 2-{1-[1-((R)-5-Bromo-indan-2-ylmethyl)-piperidin-4-yl]-5-methyl-1H-benzoimidazol-2-yl}-propan-2-ol]", "IC50": "20 to 200"}
{"molecule": "CSC1CN(C[C@@H]2Cc3ccc(NC(=O)C(C)C)cc3C2)CCC1n1c(C)nc2cc(C)ccc21", "note": "(stereo partly drawn) [Example 22, N-{(R)-2-[4-(2,5-Dimethyl-benzoimidazol-1-yl)-3-methylsulfanyl-piperidin-1-ylmethyl]-indan-5-yl}-isobutyramide; dihydrochloride]", "IC50": "20 to 200"}
{"molecule": "CO[C@H]1CN(CC2Cc3cc(F)c(F)cc3C2)CC[C@@H]1n1c(C(C)C)nc2cc(C)ccc21", "note": "[Example 100, 1-[(3S,4S)-1-(5,6-Difluoro-indan-2-ylmethyl)-3-methoxy-piperidin-4-yl]-2-isopropyl-5-methyl-1H-benzoimidazole]", "IC50": "20 to 200"}
{"molecule": "CO[C@@H]1CN(C[C@H]2Cc3ccc(Br)cc3C2)CC[C@H]1n1c(C(C)C)nc2cc(C)ccc21", "note": "[Example 18, 1-[(3R,4R)-1-((S)-5-Bromo-indan-2-ylmethyl)-3-methoxy-piperidin-4-yl]-2-isopropyl-5-methyl-1H-benzoimidazole]", "IC50": "20 to 200"}
{"molecule": "CO[C@@H]1CN(C[C@@H]2Cc3ccc(Br)cc3C2)CC[C@H]1n1c(C)nc2cc(C)ccc21", "note": "[Example 87, 1-[(3R,4R)-1-((R)-5-Bromo-indan-2-ylmethyl)-3-methoxy-piperidin-4-yl]-2,5-dimethyl-1H-benzoimidazole; dihydrochloride]", "IC50": "20 to 200"}
{"molecule": "Cc1ccc2c(c1)nc(C)n2[C@@H]1CCN(C[C@@H]2Cc3ccc(NC(=O)C(C)C)cc3C2)C[C@H]1CO", "note": "[Example 36, N-{(R)-2-[4-(2,5-Dimethyl-benzoimidazol-1-yl)-3-hydroxymethyl-piperidin-1-ylmethyl]-indan-5-yl}-isobutyramide]", "IC50": "< 20"}
{"molecule": "CCC(=O)Nc1ccc2c(c1)C[C@H](CN1CC[C@@H](n3c(C(C)C)nc4cc(C)ccc43)[C@H](OC)C1)C2", "note": "[Example 45, N-{(R)-2-[(3R,4R)-4-(2-Isopropyl-5-methyl-benzoimidazol-1-yl)-3-methoxy-piperidin-1-ylmethyl]-indan-5-yl}-propionamide]", "IC50": "20 to 200"}
{"molecule": "COC(=O)Nc1ccc2c(c1)C[C@H](CN1CC[C@@H](n3c(C(C)C)nc4cc(C)ccc43)[C@H](OC)C1)C2", "note": "[Example 77, {(R)-2-[(3R,4R)-4-(2-Isopropyl-5-methyl-benzoimidazol-1-yl)-3-methoxy-piperidin-1-ylmethyl]-indan-5-yl}-carbamic acid methyl ester]", "IC50": "20 to 200"}
{"molecule": "CO[C@@H]1CN(C[C@H]2Cc3ccc(Cl)cc3C2)CC[C@H]1n1c(C(C)(C)O)nc2cc(C)ccc21", "note": "[Example 112, 2-{1-[(3R,4R)-1-((S)-5-Chloro-indan-2-ylmethyl)-3-methoxy-piperidin-4-yl]-5-methyl-1H-benzoimidazol-2-yl}-propan-2-ol]", "IC50": "20 to 200"}
{"molecule": "CCCC(=O)Nc1ccc2c(c1)C[C@H](CN1CC[C@@H](n3c(C4CC4)nc4cc(C)ccc43)[C@H](OC)C1)C2", "note": "[Example 79, N-{(R)-2-[(3R,4R)-4-(2-Cyclopropyl-5-methyl-benzoimidazol-1-yl)-3-methoxy-piperidin-1-ylmethyl]-indan-5-yl}-butyramide]", "IC50": "20 to 200"}
